The results in this text go back to patent publication US7183276B2, “Azole compounds” (Takeda Pharmaceutical Company Limited, priority 2002, dated 2007).

One may read the melting point as the temperature, or range, at which the solid turns liquid.

`N#Cc1ccc(NC(=O)CCc2oc(-n3cnc4ccccc43)nc2-c2ccc(Cl)cc2)cc1` [Example 112, 3-[2-(1H-benzimidazol-1-yl)-4-(4-chlorophenyl)-5-oxazolyl]-N-(4-cyanophenyl)propionamide] displayed a melting point of 216 to 217 °C.

`N#Cc1ccccc1NC(=O)CCc1oc(-n2cnc3ccccc32)nc1-c1ccc(Cl)cc1` [Example 113, 3-[2-(1H-benzimidazol-1-yl)-4-(4-chlorophenyl)-5-oxazolyl]-N-(2-cyanophenyl)propionamide]: the melting point was 186 to 187 °C. In turn, `COc1ccc(NC(=O)CCc2oc(-n3cnc4ccccc43)nc2-c2ccc(Cl)cc2)cc1` [Example 114, 3-[2-(1H-benzimidazol-1-yl)-4-(4-chlorophenyl)-5-oxazolyl]-N-(4-methoxyphenyl)propionamide] registered a melting point of 240 to 241 °C. On to `COc1ccccc1NC(=O)CCc1oc(-n2cnc3ccccc32)nc1-c1ccc(Cl)cc1` [Example 115, 3-[2-(1H-benzimidazol-1-yl)-4-(4-chlorophenyl)-5-oxazolyl]-N-(2-methoxyphenyl)propionamide], for which the melting point lay within 194 to 195 °C.

On to `O=C(CCc1oc(-n2cnc3ccccc32)nc1-c1ccc(Cl)cc1)Nc1ccc(C2CCCCC2)cc1` [Example 116, 3-[2-(1H-benzimidazol-1-yl)-4-(4-chlorophenyl)-5-oxazolyl]-N-(4-cyclohexylphenyl)propionamide], for which the melting point was in the range of 216 to 217 °C. The compound `CC(C)(C)c1ccc(NC(=O)CCc2oc(-n3cnc4ccccc43)nc2-c2ccc(Cl)cc2)cc1` [Example 117, 3-[2-(1H-benzimidazol-1-yl)-4-(4-chlorophenyl)-5-oxazolyl]-N-(4-tert-butylphenyl)propionamide] gave a melting point of 219 to 220 °C.

In turn, `O=C(CCc1oc(-n2cnc3ccccc32)nc1-c1ccc(Cl)cc1)Nc1ccccc1` [Example 120, 3-[2-(1H-benzimidazol-1-yl)-4-(4-chlorophenyl)-5-oxazolyl]-N-phenylpropionamide] returned a melting point of 226 to 227 °C.

`O=C(CCc1oc(-n2cnc3ccccc32)nc1-c1ccc(Cl)cc1)Nc1ccc(C(F)(F)F)cc1` [Example 121, 3-[2-(1H-benzimidazol-1-yl)-4-(4-chlorophenyl)-5-oxazolyl]-N-[4-(trifluoromethyl)phenyl]propionamide] displayed a melting point of 259 to 263 °C. Then `O=C(CCc1oc(-n2cnc3ccccc32)nc1-c1ccc(Cl)cc1)Nc1ccc(OC(F)(F)F)cc1` [Example 122, 3-[2-(1H-benzimidazol-1-yl)-4-(4-chlorophenyl)-5-oxazolyl]-N-[4-(trifluoromethoxy)phenyl]propionamide], with 174 to 175 °C.

Compound `Cc1ccc(CNC(=O)CCc2oc(-n3cnc4ccccc43)nc2-c2ccc(Cl)cc2)cc1` [Example 125, 3-[2-(1H-benzimidazol-1-yl)-4-(4-chlorophenyl)-5-oxazolyl]-N-(4-methylbenzyl)propionamide] gave a melting point of 241 to 242 °C. Compound `CC(C)c1ccc(NC(=O)CCc2oc(-n3cnc4ccccc43)nc2-c2ccc(Cl)cc2)cc1` [Example 126, 3-[2-(1H-benzimidazol-1-yl)-4-(4-chlorophenyl)-5-oxazolyl]-N-(4-isopropylphenyl)propionamide] yielded a melting point of 232 to 233 °C. The figure for `COc1cc(NC(=O)CCc2oc(-n3cnc4ccccc43)nc2-c2ccc(Cl)cc2)cc(OC)c1OC` [Example 127, 3-[2-(1H-benzimidazol-1-yl)-4-(4-chlorophenyl)-5-oxazolyl]-N-(3,4,5-trimethoxyphenyl)propionamide] is 228 to 229 °C. The figure for `O=C(CCc1oc(-n2cnc3ccccc32)nc1-c1ccc(Cl)cc1)Nc1ccc(F)cc1` [Example 128, 3-[2-(1H-benzimidazol-1-yl)-4-(4-chlorophenyl)-5-oxazolyl]-N-(4-fluorophenyl)propionamide] is 221 to 222 °C; for `COC(=O)Cc1csc(NC(=O)CCc2oc(-n3cnc4ccccc43)nc2-c2ccc(Cl)cc2)n1` [Example 129, 3-[2-(1H-benzimidazol-1-yl)-4-(4-chlorophenyl)-5-oxazolyl]-N-{4-[(methoxycarbonyl)methyl]-2-thiazolyl}propionamide] it is 233 to 234 °C; for `CN(C)c1ccc(NC(=O)CCc2oc(-n3cnc4ccccc43)nc2-c2ccc(Cl)cc2)cc1` [Example 130, 3-[2-(1H-benzimidazol-1-yl)-4-(4-chlorophenyl)-5-oxazolyl]-N-[4-(dimethylamino)phenyl]propionamide] it is 212 to 214 °C.

`O=C(CCc1oc(-n2cnc3ccccc32)nc1-c1ccc(Cl)cc1)NCc1ccccc1` [Example 132, 3-[2-(1H-benzimidazol-1-yl)-4-(4-chlorophenyl)-5-oxazolyl]-N-benzylpropionamide] registered a melting point of 205 to 206 °C. `COc1ccccc1CNC(=O)CCc1oc(-n2cnc3ccccc32)nc1-c1ccc(Cl)cc1` [Example 133, 3-[2-(1H-benzimidazol-1-yl)-4-(4-chlorophenyl)-5-oxazolyl]-N-(2-methoxybenzyl)propionamide]: the melting point was in the range of 210 to 211 °C. As for `O=C(CCc1oc(-n2cnc3ccccc32)nc1-c1ccc(Cl)cc1)NCc1ccccc1Cl` [Example 134, 3-[2-(1H-benzimidazol-1-yl)-4-(4-chlorophenyl)-5-oxazolyl]-N-(2-chlorobenzyl)propionamide], the melting point was in the range of 222 to 223 °C.

For `CN(C)c1ccc(CNC(=O)CCc2oc(-n3cnc4ccccc43)nc2-c2ccc(Cl)cc2)cc1` [Example 135, 3-[2-(1H-benzimidazol-1-yl)-4-(4-chlorophenyl)-5-oxazolyl)-N-[4-(dimethylamino)benzyl]propionamide], the melting point lay within 184 to 185 °C. Turning to `O=C(CCc1oc(-n2cnc3ccccc32)nc1-c1ccc(Cl)cc1)NCCc1ccccc1` [Example 136, 3-[2-(1H-benzimidazol-1-yl)-4-(4-chlorophenyl)-5-oxazolyl]-N-(2-phenylethyl)propionamide], the melting point lay in the range of 164 to 165 °C. The figure for `O=C(CCc1oc(-n2cnc3ccccc32)nc1-c1ccc(Cl)cc1)NCc1ccccc1F` [Example 137, 3-[2-(1H-benzimidazol-1-yl)-4-(4-chlorophenyl)-5-oxazolyl]-N-(2-fluorobenzyl)propionamide] is 202 to 203 °C. In turn, `O=C(CCc1oc(-n2cnc3ccccc32)nc1-c1ccc(Cl)cc1)NCc1ccc(C(F)(F)F)cc1` [Example 138, 3-[2-(1H-benzimidazol-1-yl)-4-(4-chlorophenyl)-5-oxazolyl]-N-[4-(trifluoromethyl)benzyl]propionamide] yielded a melting point of 194 to 195 °C. For `COc1ccccc1NC(=O)Cc1ccc(NC(=O)CCc2oc(-n3cnc4ccccc43)nc2-c2ccc(Cl)cc2)cc1` [Example 139, 2-[4-(N-{3-[2-(1H-benzimidazol-1-yl)-4-(4-chlorophenyl)-5-oxazolyl]propanoyl}amino)phenyl]-N-(2-methoxyphenyl)acetamide], the melting point fell in the range of 258 to 259 °C.

Compound `CN(C)c1ccc(NC(=O)Cc2ccc(NC(=O)CCc3oc(-n4cnc5ccccc54)nc3-c3ccc(Cl)cc3)cc2)cc1` [Example 140, 2-[4-(N-{3-[2-(1H-benzimidazol-1-yl)-4-(4-chlorophenyl)-5-oxazolyl]propanoyl}amino)phenyl]-N-[4-(dimethylamino)phenyl]acetamide] showed a melting point of 169 to 170 °C.

Compound `Cc1nccn1-c1nc(-c2ccc(Cl)cc2)c(CCC(=O)Nc2ccc(CC#N)cc2)o1` [Example 141, 3-[4-(4-chlorophenyl)-2-(2-methyl-1-imidazolyl)-5-oxazolyl]-N-[4-(cyanomethyl)phenyl]propionamide] yielded a melting point of 187 to 188 °C. Then `CN(C)C(=O)Cc1ccc(NC(=O)CCc2oc(-n3cnc4ccccc43)nc2-c2ccc(Cl)cc2)cc1` [Example 142, 2-[4-({3-[2-(1H-benzimidazol-1-yl)-4-(4-chlorophenyl)-5-oxazolyl]propanoyl}amino)phenyl]-N,N-dimethylacetamide], with 207 to 208 °C. Then `CNC(=O)Cc1ccc(NC(=O)CCc2oc(-n3cnc4ccccc43)nc2-c2ccc(Cl)cc2)cc1` [Example 143, 2-[4-({3-[2-(1H-benzimidazol-1-yl)-4-(4-chlorophenyl)-5-oxazolyl]propanoyl}amino)phenyl]-N-methylacetamide], with 219 to 221 °C; and `CC(C)(C)c1ccc(CNC(=O)CCc2oc(-n3cnc4ccccc43)nc2-c2ccc(Cl)cc2)cc1` [Example 144, 3-[2-(1H-benzimidazol-1-yl)-4-(4-chlorophenyl)-5-oxazolyl]-N-[4-tert-butylbenzyl]propionamide], with 170 to 171 °C. Compound `COc1ccc(CNC(=O)CCc2oc(-n3cnc4ccccc43)nc2-c2ccc(Cl)cc2)cc1` [Example 145, 3-[2-(1H-benzimidazol-1-yl)-4-(4-chlorophenyl)-5-oxazolyl]-N-(4-methoxybenzyl)propionamide] came in with a melting point of 210 to 212 °C.

In the case of `Cc1ccc(CNC(=O)CCc2oc(-n3cnc4ccccc43)nc2-c2ccc(Cl)cc2)cc1` [Example 146, 3-[2-(1H-benzimidazol-1-yl)-4-(4-chlorophenyl)-5-oxazolyl]-N-(4-methylbenzyl)propionamide], the melting point was 210 to 212 °C. On to `O=C(CCc1oc(-n2cnc3ccccc32)nc1-c1ccc(Cl)cc1)NCc1ccc(Cl)c(Cl)c1` [Example 147, 3-[2-(1H-benzimidazol-1-yl)-4-(4-chlorophenyl)-5-oxazolyl]-N-(3,4-dichlorobenzyl)propionamide], for which the melting point fell in the range of 190 to 191 °C. The figure for `O=C(CCc1oc(-n2cnc3ccccc32)nc1-c1ccc(Cl)cc1)NCC(=O)NCc1ccccc1` [Example 148, 2-({3-[2-(1H-benzimidazol-1-yl)-4-(4-chlorophenyl)-5-oxazolyl]propanoyl}amino)-N-benzylacetamide] is 186 to 187 °C; for `O=C(CCc1oc(-n2cnc3ccccc32)nc1-c1ccc(Cl)cc1)NCC(=O)Nc1ccccc1` [Example 149, 2-({3-[2-(1H-benzimidazol-1-yl)-4-(4-chlorophenyl)-5-oxazolyl]propanoyl}amino)-N-phenylacetamide] it is 250 to 251 °C.
